Blank lines part the entries; values can stand above or below the molecule they belong to.
Columns and labels:
LNCaP cells = experiment: Viability assay with MEK inhibitors
Experimental: (§1) Cells were infected or transfected in six-well plates. Forty-eight hours after infection or transfection, cells were treated with 1 μM Tg for the time indicated. At the end of the treatments MTS assays were performed using CellTiter 96 aqueous one solution reagent from Promega by a modified version of the procedure. Briefly 300 μl of MTS solution was added to each well and incubated for 1 h at 37° C. One milliliter of reaction or medium mix was transferred from each well to an Eppendorf tube and then centrifuged in a microcentrifuge for 5 min at 4,000 rpm (˜3,000×g). One hundred microliters of supernatant was transferred to each well of a 96-well plate, and the relative viability was determined by the measurement of absorbance at 490 nm in a 96-well plate reader. […] Apoptotic morphology was analyzed with phase-contrast fluorescence microscopy after incubation with 0.2 μg of 4′6′-dismidino-2-phenylindole (DAPI) per ml. The activities of caspases in the cell lysates were analyzed by Western blotting using specific antibodies recognizing procaspases or cleaved forms of caspases, followed by quantitative intensity analysis using software (GelExpert; Nucleo Vision) and normalized to the intensity of β-actin in the same sample.

ERK1/2 = experiment: Phosphorylated ERK1/2 by Western blot; assay type: cell-based, human; settings: Adcav-1- or AdRSV-infected cells
Experimental: Unless specifically indicated, immunoprecipitation (IP) was performed as follows. Cells were washed with ice-cold phosphate-buffered saline (PBS), lysed on the plates by incubation for 10 min on ice with IP lysis buffer, which consists of 20 mM Tris-HCl (pH 7.5), 150 mM NaCl, 1 mM EDTA, 1 mM EGTA, 1% Triton X-100, 1 mM β-glycerophosphate, 60 mM octylglucoside and protease inhibitor cocktail. Cells were then scraped off the dish, transferred to microcentrifuge tubes, placed on ice for 20 min, and centrifuged for 10 min at high speed in a microcentrifuge at 4° C. The supernatant (cell lysate) was transferred to a fresh tube and frozen at −80° C. until use. Typically, 500 μg of cell lysate proteins were diluted to 500 μl with IP lysis buffer and precleared by incubation with 3 μg of the corresponding immunoglobulin G (IgG) from […] for 30 min at 4° C. on a rocker, followed by the addition of 50 μl of IP lysis buffer-prewashed protein A or G plus agarose and incubation for another 1 h. The cleared cell lysate was incubated with 3 μg of specific antibody or the corresponding IgG overnight at 4° C. on a rocker. […] For regular Western blot analysis, protein concentration in cell lysates was determined by the Bio-Rad protein assay, and 30 μg of protein from each sample was loaded on the gel. β-Actin served as a loading control.

PI3-K = PI3-K activity assay (TLC); assay type: cell-based, human; settings: 1 μM Tg for 48 h; cav-1-expressing and control LNCaP cells
Experimental: Cell lysates were prepared as described above for the Akt activity assay. PI3-K activity assays were performed as described below. Briefly, 500 μg of cell lysate proteins were immunoprecipitated with monoclonal antibody against phosphotyrosine for 3 h at 4° C. with gentle rocking, and the beads were washed twice with lysis buffer and twice with PI3-K assay buffer (20 mM Tris [pH 7.5], 100 mM NaCl, 0.5 mM EGTA, 20 mM MgCl2). PI was dissolved in chloroform (5 mg/ml) and diluted to 0.5 mg/ml with PI3-K assay buffer, followed by sonication. […] Five microliters of washed chloroform phase from each sample was loaded on a TLC plate and analyzed by ascending chromatography in chloroform-methanol-29.5% ammonium hydroxide-water (90:90:8:19), followed by autoradiography.
Protein expression levels and kinase activities of PI3-K, PDK1, and Akt were determined in cav-1-expressing or vector control LNCaP cells before and after treatment with 1 μM Tg for 48 h (+Tg): (A) PI3-K kinase assay by TLC (top gel); (B) PDK1 IP kinase assay; (C) Akt IP kinase assay using recombinant GSK3 as a substrate. Total protein and phosphorylated protein (indicated by P-prefix before protein name) of each kinase were analyzed and presented in each blot. β-Actin served as a loading control. […]

PDK1 = PDK1 IP kinase assay; assay type: cell-based, human; settings: 1 μM Tg for 48 h; LNCaP cells
Experimental: Cell lysates were prepared as described above. PDK1 activity assay was performed according to the manufacturer's protocol (Upstate Biotechnology). Radioactivity that remained on the P81 paper was read with TopCount (Packard).
Protein expression levels and kinase activities of PI3-K, PDK1, and Akt were determined in cav-1-expressing or vector control LNCaP cells before and after treatment with 1 μM Tg for 48 h (+Tg): (A) PI3-K kinase assay by TLC (top gel); (B) PDK1 IP kinase assay; (C) Akt IP kinase assay using recombinant GSK3 as a substrate. Total protein and phosphorylated protein (indicated by P-prefix before protein name) of each kinase were analyzed and presented in each blot. β-Actin served as a loading control. There was no difference in protein expression levels for PI3-K in cav-1-expressing cells to control vector-infected cells (FIG. 2A). Although PI3-K activity was reduced by Tg treatment, no difference was found between cav-1-expressing and control cells (FIG. 2A). Tg treatment also led to reduced PDK1 activity; however, compared with control RSV-infected cells, PDK1 activity was approximately 17% higher in cav-1-expressing cells and approximately 30% higher in Tg-treated cav-1-expressing cells (FIG. 2B). In the same lysates, there was no difference in PDK1 protein expression (FIG. 2B).

[1] = Viability assay with MEK inhibitors; settings: human
Experimental: as §1

PP1 (catalytic subunit) = target: T1, PP1 (catalytic subunit) (Oryctolagus cuniculus, UniProt P62139); experiment: In vitro malachite green phosphatase assay with purified cav-1; assay type: biochemical, rabbit; settings: 100 ng purified cav-1, 0.02 U PP1
T1 construct: purchased New England BioLabs
Experimental: (§2) PP1 (catalytic subunit) (0.02 U) or PP2A (core enzyme) (0.01 U) was incubated with or without 100 ng of purified cav-1 protein for 1 h at 4° C. Phosphatase assay buffer and a phosphopeptide (K-R-pT-1-R-R) were added to a final volume of 50 μl. Reactions were initialed by the addition of 200 μM phosphopeptide, and reaction mixtures were incubated at room temperature for 10 min. Reactions were terminated by the addition of 100 μl of malachite green solution. Activities of PP1 and PP2A were determined by the measurement of absorbance at 620 nm.
(§3) To determine whether the effects of cav-1 on PP1 and PP2A are direct and whether cav-1 interacts with and inhibits PP1 and PP2A in vitro, in vitro IP experiments were performed using purified His-V5-tagged human cav-1, PP1 (C subunit), and PP2A (core enzyme). […] The results of in vitro phosphatase assays indicate that the addition of cav-1 reduced PP1 and PP2A activities by approximately 30% under these basic conditions (FIG. 3F). Briefly, cells were treated with purified cav-1 (¢) or not treated with purified cav-1 (£) and relative activity was determined by measuring the optical density at 620 nm (OD620).

PP2A (core enzyme) = target: T2, PP2A (core enzyme) (Homo sapiens, UniProt P67775); experiment: as above; assay type: biochemical; settings: 100 ng purified cav-1, 0.01 U PP2A
T2 construct: purchased Upstate Biotechnology
Experimental: as §2, §3

T1 sequence (P62139 whole entry): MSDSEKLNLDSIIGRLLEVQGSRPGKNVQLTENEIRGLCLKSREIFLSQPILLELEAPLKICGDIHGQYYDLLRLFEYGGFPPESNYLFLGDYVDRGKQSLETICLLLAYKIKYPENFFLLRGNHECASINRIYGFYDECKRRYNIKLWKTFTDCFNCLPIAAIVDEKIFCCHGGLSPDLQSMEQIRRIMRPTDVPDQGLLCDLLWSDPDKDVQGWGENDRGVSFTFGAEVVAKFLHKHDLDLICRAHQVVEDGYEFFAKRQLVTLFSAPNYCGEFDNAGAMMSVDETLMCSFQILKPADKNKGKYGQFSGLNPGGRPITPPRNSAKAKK
T2 sequence (P67775 whole entry): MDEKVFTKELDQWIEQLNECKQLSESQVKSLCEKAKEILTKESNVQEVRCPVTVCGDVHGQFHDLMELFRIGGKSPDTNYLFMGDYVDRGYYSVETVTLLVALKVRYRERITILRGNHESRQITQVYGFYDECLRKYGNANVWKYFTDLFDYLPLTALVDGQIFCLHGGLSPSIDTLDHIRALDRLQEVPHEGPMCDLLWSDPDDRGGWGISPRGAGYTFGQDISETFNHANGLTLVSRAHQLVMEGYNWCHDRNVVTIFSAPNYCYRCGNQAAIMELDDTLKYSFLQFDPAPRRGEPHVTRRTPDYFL
T2 sequence (P30153 2-589 partner limits assumed): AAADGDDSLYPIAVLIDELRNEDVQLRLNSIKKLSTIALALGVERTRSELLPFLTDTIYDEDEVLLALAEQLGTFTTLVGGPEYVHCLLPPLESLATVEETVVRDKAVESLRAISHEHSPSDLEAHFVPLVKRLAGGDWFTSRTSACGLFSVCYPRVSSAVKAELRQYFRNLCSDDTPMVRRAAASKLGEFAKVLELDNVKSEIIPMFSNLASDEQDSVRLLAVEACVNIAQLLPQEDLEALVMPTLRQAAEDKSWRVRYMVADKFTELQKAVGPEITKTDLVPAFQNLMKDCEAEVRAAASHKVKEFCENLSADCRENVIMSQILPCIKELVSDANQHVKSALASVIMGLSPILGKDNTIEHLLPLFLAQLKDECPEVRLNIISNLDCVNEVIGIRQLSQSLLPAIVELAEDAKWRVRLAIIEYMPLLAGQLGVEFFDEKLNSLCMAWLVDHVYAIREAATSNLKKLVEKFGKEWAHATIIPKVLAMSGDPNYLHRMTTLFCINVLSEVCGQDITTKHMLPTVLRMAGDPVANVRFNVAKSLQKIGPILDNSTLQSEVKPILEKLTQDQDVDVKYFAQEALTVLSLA

Molecule: COc1cccc(-c2cc(=O)c3ccccc3o2)c1N [PD98059]
reduction of cell viability (LNCaP cells): ~20%
phosphorylated ERK1/2 (ERK1/2): reduction

Molecule: C/C=C(/C)C(=O)O[C@H]1C(C)=C2[C@H]([C@@H]1OC(=O)CCCCCCC)[C@@](C)(OC(C)=O)C[C@H](OC(=O)CCC)[C@@]1(O)[C@H]2OC(=O)[C@@]1(C)O [Tg, thapsigargin]
PI3-K activity (PI3-K): reduced
PDK1 activity (PDK1): reduced

Molecule: N#CC(=C(/N)Sc1ccccc1N)/C(C#N)=C(\N)Sc1ccccc1N [U0126]
cytotoxicity [1]: ~15%
phosphorylated ERK1/2 (ERK1/2): reduction

reduction of PP1 activity (PP1 (catalytic subunit)): approximately 30%
reduction of PP2A activity (PP2A (core enzyme)): approximately 30%
B1: purified cav-1: purified His-V5-tagged human cav-1 protein (protein, UniProt Q03135 2-178, looked up)
Caveolin-1: SGGKYVDSEGHLYTVPIREQGNIYKPNNKAMADELSEKQVYDAHTKEIDLVNRDPKHLNDDVVKIDFEDVIAEPEGTHSFDGIWKASFTTFTVTKYWFYRLLSALFGIPMALIWGIYFAILSFLHIWAVVPCIKSFLIEIQCISRVYSIYVHTVCDPLFEAVGKIFSNVRINLQKEI
modifications: His-V5 tag
notes: purified His-V5-tagged human cav-1 protein
